Measurements as given in patent publication US20230053540A1, “TREATMENT OF LIVER INJURY” (Massachusetts Institute of Technology, priority 2019, published 2023).

Test system: hepatocytes
Assay: Seq-Well scRNA-Seq of hepatocytes after APAP overdose (signature scores, DEG vs untreated)
Type: in vivo, mouse
Conditions: A6 vs UT

CC(=O)Nc1ccc(O)cc1 [APAP, acetaminophen]
Ash11 A6logFC: 0.2657
Asl avg_logFC: 0.5586
Atf4 A6logFC: 0.3411
Atf6 A6logFC: 0.3778
Atox1 avg_logFC: −0.4462
Atox1 pct.1: 0.382
Atp1a1 avg_logFC: 0.4191
Atp1a1 pct.1: 0.53
Atp1b1 A6logFC: 0.3702
Atp2a2 avg_logFC: 0.495
Atp2b1 A6logFC: 0.3321
Atp5e avg_logFC: −0.6502
Atp5f1 avg_logFC: −0.5171
Atp5f1 pct.1: 0.69
Atp5j2 avg_logFC: −0.5131
Atp5j2 pct.1: 0.606
Atp5k avg_logFC: −0.4773
Atp5k pct.1: 0.368
Atp13a3 avg_logFC: 0.3945
Atp13a3 pct.1: 0.532
Atp5h avg_logFC: −0.6398
B2m avg_logFC: −0.3304
B2m pct.1: 0.871
B4galt5 avg_logFC: 0.4763
BC005537 A6logFC: 0.3543
Bach1 avg_logFC: 0.8323
Bbox1 avg_logFC: −0.4082
Bbox1 pct.1: 0.308
Bc1af1 A6logFC: 0.2685
Bcl2l1 avg_logFC: 0.7751
Bcl3 avg_logFC: 0.289
Bcl3 pct.1: 0.277
Bclaf1 avg_logFC: 0.2685
Bclaf1 pct.1: 0.372
Bdh1 avg_logFC: −0.2936
Bdh1 pct.1: 0.315
Bdhl A6logFC: −0.2936
Bet1 A6logFC: −0.2966
Birc6 A6logFC: 0.3444
Birc6 avg_logFC: 0.3444
Birc6 pct.1: 0.446
Blvrb avg_logFC: −0.5451
Blvrb pct.1: 0.286
Bphl avg_logFC: −0.4075
Bphl pct.1: 0.339
Brd2 A6logFC: 0.5715
Brd2 avg_logFC: 0.5715
Brd2 pct.1: 0.542
Bst2 A6logFC: −0.3156
Btaf1 A6logFC: 0.2755
Btaf1 avg_logFC: 0.2755
Btaf1 pct.1: 0.284
Btg1 avg_logFC: 0.458
Btg1 pct.1: 0.356
Btg2 avg_logFC: 0.8321
Bzw1 avg_logFC: 0.2948
Bzw1 pct.1: 0.475
C1qa avg_logFC: 0.5148
C1qa pct.1: 0.174
C1qc avg_logFC: 0.5861
C1qc pct.1: 0.172
C8g avg_logFC: −0.6545
C1d A6logFC: −0.2553
C1d avg_logFC: −0.2553
C1d pct.1: 0.208
C230081A13Rik avg_logFC: 0.427
Cald1 avg_logFC: 0.3737
Cald1 pct.1: 0.766
Cap1 A6logFC: 0.3251
Cap1 avg_logFC: 0.3251
Cap1 pct.1: 0.356
Car3 avg_logFC: −1.036
Car5a A6logFC: −0.3088
Cbr1 avg_logFC: 0.2847
Cbr1 pct.1: 0.494
Ccbl1 avg_logFC: −0.3649
Ccbl1 pct.1: 0.205
Ccdc50 A6logFC: 0.2858
Ccdc50 avg_logFC: 0.2858
Ccdc50 pct.1: 0.401
Ccl6 avg_logFC: 0.7891
Ccnl1 A6logFC: 0.2566
Ccnl1 avg_logFC: 0.2566
Ccnl1 pct.1: 0.351
Ccs avg_logFC: −0.4267
Ccs pct.1: 0.42
Cd5l avg_logFC: 0.6935
Cd14 avg_logFC: 0.3621
Cd44 avg_logFC: 0.3037
Cd44 pct.1: 0.115
Cd53 avg_logFC: 0.2656
Cd53 pct.1: 0.103
Cd74 avg_logFC: 0.4539
Cd74 pct.1: 0.155
Cd97 avg_logFC: 0.3458
Cd97 pct.1: 0.115
Cd163 avg_logFC: 0.4408
Cd163 pct.1: 0.146
Cd302 avg_logFC: −0.5499
Cdh1 A6logFC: 0.2697
Cdh1 avg_logFC: 0.2697
Cdh1 pct.1: 0.327
Cdkn1a avg_logFC: 1.215
Cebpa avg_logFC: −0.3916
Cebpa pct.1: 0.442
Cela1 A6logFC: −0.2723
Cep85 A6logFC: 0.2839
Cep85 avg_logFC: 0.2839
Cep85 pct.1: 0.313
Cers6 avg_logFC: 0.5328
Ces3a avg_logFC: −0.5253
Ces3b avg_logFC: −0.3664
Ces3b pct.1: 0.57
Cfhr1 A6logFC: −0.3253
Cfp avg_logFC: 0.3562
Cfp pct.1: 0.143
Chac2 avg_logFC: −0.2865
Chac2 pct.1: 0.057
Chchd1 avg_logFC: −0.4398
Chchd1 pct.1: 0.21
Chchd2 avg_logFC: −0.5525
Chchd10 avg_logFC: −0.4019
Chchd10 pct.1: 0.802
Chd1 avg_logFC: 0.3788
Chd1 pct.1: 0.377
Chic2 avg_logFC: 0.4198
Chic2 pct.1: 0.37
Chka avg_logFC: 1.375
Chmp4b A6logFC: 0.3002
Chuk A6logFC: 0.3724
Cidec avg_logFC: 0.2994
Cldn2 A6logFC: −0.2511
Cldn14 avg_logFC: 0.3645
Cldn14 pct.1: 0.32
Clec4f avg_logFC: 1.108
Clec4d avg_logFC: 0.2636
Clec4d pct.1: 0.107
Clic4 A6logFC: 0.2998
Clic4 avg_logFC: 0.2998
Clic4 pct.1: 0.368
Clqb avg_logFC: 0.6817
Cltc avg_logFC: 0.785
Cmbl avg_logFC: −0.4427
Cmbl pct.1: 0.415
Cml1 avg_logFC: −0.6142
Coa6 avg_logFC: −0.4114
Coa6 pct.1: 0.15
Coasy A6logFC: −0.2534
Coasy avg_logFC: −0.2534
Coasy pct.1: 0.327
Commd3 A6logFC: −0.2656
Commd3 avg_logFC: −0.2656
Commd3 pct.1: 0.274
Commd6 avg_logFC: −0.3645
Commd6 pct.1: 0.172
Cox4i1 avg_logFC: −0.516
Cox5b avg_logFC: −0.4988
Cox5b pct.1: 0.425
Cox6a1 avg_logFC: −0.4872
Cox6a1 pct.1: 0.675
Cox6c avg_logFC: −0.8443
Cox7a2 avg_logFC: −0.6503
Cox7b avg_logFC: −0.6422
Cp avg_logFC: 0.2541
Cp pct.1: 0.89
Creb3l2 avg_logFC: 0.4272
Crp avg_logFC: −0.5069
Crp pct.1: 0.477
Csad avg_logFC: −0.5598
Csad pct.1: 0.473
Csrp3 A6logFC: −0.294
Ctnnd1 A6logFC: 0.2518
Ctnnd1 avg_logFC: 0.2518
Ctnnd1 pct.1: 0.358
Ctsb A6logFC: 0.5213
Ctsb avg_logFC: 0.5213
Ctsb pct.1: 0.804
Ctsc A6logFC: 0.361
Ctsl avg_logFC: 0.5301
Ctss avg_logFC: 0.7642
Cu11 A6logFC: 0.2592
Cu13 A6logFC: 0.2788
Cul1 avg_logFC: 0.2592
Cul1 pct.1: 0.425
Cul3 avg_logFC: 0.2788
Cul3 pct.1: 0.415
Cxadr avg_logFC: 0.6985
Cxcl12 avg_logFC: −0.3058
Cxcl12 pct.1: 0.251
Cyb5 avg_logFC: −0.7102
Cybb A6logFC: 0.3778
Cyp4a10 avg_logFC: 0.4566
Cyp4a10 pct.1: 0.687
Cyp4a14 avg_logFC: 1.122
Cyp4f15 A6logFC: −0.2998
D10Wsu102e avg_logFC: 0.5878
Dbi avg_logFC: −0.7164
Dcaf11 avg_logFC: −0.2817
Dcaf11 pct.1: 0.446
Dcxr avg_logFC: −0.4409
Dcxr pct.1: 0.37
Ddah1 A6logFC: −0.312
